This experiment relates to ncf1 (p47 phox). Description: p47 phox (ncf1) S345 phosphorylation, phosphoproteomics and Western blot. The class given is cell-based, human. Conditions: R848 activation. How it is done: Another target of TLR7/8 stimulation was ncf1 (p47 phox). Ncf1 was phosphorylated at S345, a known target site involved in activation of the NADPH oxidase complex. […] The experiment was repeated three times; combined results were compared using paired t test (P=0.044). Neutrophils were incubated with R848 in the absence or presence of the PI3K inhibitor Ly294002 and analyzed for pS345 or total levels of p47 phox using Western Blot. The experiment was repeated four times; combined results were compared using paired t test (No stim, P=0.03; R848+LY294002, P=0.0011). […] Briefly, neutrophils were treated with inhibitors of NADPH oxidase prior to addition of R848 and analyzed for cell surface expression of FcgRIIA by flow cytometry. […] Briefly, neutrophils from healthy individuals (HV, n=18) and CGD patients (n=4) were stimulated with R848 and analyzed for FcgRIIA levels by flow cytometry. The data were analyzed using paired t test (HC, P<0.0001) and unpaired t test (HC vs CGD, P=0.0097). Neutrophils from healthy individuals (HV, n=13) and CGD patients (n=3) were activated by R848 and analyzed for CD66b expression by flow cytometry using paired t test (HC, P<0.0001; CGD, P=0.039). […] Briefly, neutrophils were activated with LPS or PAM3CSK4 in presence of DPI and analyzed for FcgRIIA levels by flow cytometry. […]
A general note: Immunoblotting shows a protein as a band on a membrane.

As for `CCOCc1nc2c(N)nc3ccccc3c2n1CC(C)(C)O` [R848], the “phosphorylation of ncf1 (p47 phox) at S345” value is on record as “phosphorylated (p47 phox) at S345”.

The values above are taken from patent US20260133193A1, “COMPOSITIONS AND METHODS FOR TREATING INFLAMMATORY DISEASES” (University of Washington, priority 2018, published 2026).
